pIC50: −log10 of the molar value.
Assays:
[1] = target: T1, OGG1 (Homo sapiens, UniProt O15527); test: Biochemical fluorescence (fluorophore-quencher) assay of OGG1 incision rate, 8-oxoA substrate; conditions: for AC50 (μM): biochemical assay of virtual screening hits (NCI samples), Table S1
T1 construct: made in house

[2] = target: T2, NUDT15 (Homo sapiens, UniProt Q9NV35); set-up: method as in Hank et al. 1 and Kehler et al. 2; conditions: reference compound; ref Hank et al. 1 and Kehler et al. 2; cited from earlier work
T2 construct: made in house
T2 sequence (Q9NV35 1-164): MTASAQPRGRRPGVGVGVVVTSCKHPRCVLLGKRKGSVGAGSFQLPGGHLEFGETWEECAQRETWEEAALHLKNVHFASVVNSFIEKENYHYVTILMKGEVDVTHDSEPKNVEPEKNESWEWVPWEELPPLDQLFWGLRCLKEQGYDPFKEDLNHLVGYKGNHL

[3] = target: T3, NUDT5 (Homo sapiens, UniProt Q9UKK9); set-up: method as in Hank et al. 1 and Kehler et al. 2; conditions: reference compound; ref Hank et al. 1 and Kehler et al. 2; cited from earlier work
T3 construct: made in house

T1 sequence (O15527 whole entry): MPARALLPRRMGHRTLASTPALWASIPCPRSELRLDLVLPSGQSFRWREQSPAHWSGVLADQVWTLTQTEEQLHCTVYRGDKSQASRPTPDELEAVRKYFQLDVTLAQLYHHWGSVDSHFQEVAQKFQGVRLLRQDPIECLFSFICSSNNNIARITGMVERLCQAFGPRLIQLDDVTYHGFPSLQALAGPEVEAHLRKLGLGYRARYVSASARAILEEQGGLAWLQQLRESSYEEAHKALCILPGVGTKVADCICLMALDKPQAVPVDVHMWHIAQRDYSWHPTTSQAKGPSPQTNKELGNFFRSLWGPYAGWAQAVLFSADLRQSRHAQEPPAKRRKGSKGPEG

| AC50 (μM) [1] | SMILES | other results |
| --- | --- | --- |
| inactive | NC(=O)C1CCCN(C(=O)Nc2ccccc2F)C1 (stereo not shown) [NSC 213798] |  |
| inactive | COc1cc(OC)c(NC(=O)CC2SC(N)=NC2=O)cc1Cl (stereo not shown) [NSC 247010] |  |
| inactive | CC1=CC2C(c3ccccc3)Nc3ccccc3N2C1=O (stereo not shown) [NSC 263759] |  |
| inactive | O=C1c2ccccc2C(O)N1CCc1c[nH]c2ccccc12 (stereo not shown) [NSC 338155] |  |
| inactive | CNC1NC(=O)c2ccccc2N1Cc1ccc(F)cc1 (stereo not shown) [NSC 364164] |  |
| inactive | CCOC(=O)c1ccc2c(c1)NCc1cccc(OC)c1O2 [NSC 364889] |  |
| inactive | CC1CC2=C(C(=O)O1)C(c1ccccc1)Nc1ccccc1N2 (stereo not shown) [NSC 637579] |  |
| weak | O=C1Nc2ccccc2C12CCNC2Cc1ccccc1 (stereo not shown) [NSC 643518] |  |
| inactive | c1ccc(C2Nc3ccccc3C3OCCCC23)cc1 (stereo not shown) [NSC 645796] |  |
| inactive | COc1ccccc1N1C(=O)CSC1c1c[nH]c2ccccc12 (stereo not shown) [NSC 655348] |  |
| inactive | CC(=O)N1C(C(=O)NC2CCCCC2)CSC1c1ccccc1 (stereo not shown) [NSC 669300] |  |
| inactive | O=C(NCCc1c(-c2ccccc2)[nH]c2ccccc12)C(F)(F)F [NSC 674639] |  |
|  | O=C(c1ccc2[nH]ccc2c1)N1CCN(S(=O)(=O)c2ccc3[nH]c(=O)oc3c2)CC1 [TH1760] | Reference inhibition [2]: 96% |
|  | Cn1c(=O)c2c(nc(N3CCNCC3)n2Cc2nnc(-c3ccc(Cl)c(Cl)c3)o2)n(C)c1=O [TH5427] | Reference inhibition [3]: 99% |
| inactive | CN(C)Cc1c(-c2ccccc2)[nH]c2ccccc12 [TH12166] | OGG1 activation, SAR result in words [1]: inhibited activity; pIC50 ([1]; inhibition of OGG1): 4.81 |

| SMILES | AC50 (μM) [1] | other results |
| --- | --- | --- |
| Cl.NCCc1c[nH]c2ccccc12 [NSC 522258] | inactive |  |
| CC(=O)C1CC(C)=CCC12C(=O)Nc1ccccc12 (stereo not shown) [NSC 642717] | inactive |  |

— article PMC12621200, “Giving an Enzyme Scissors: Serotonin Derivatives as Potent Organocatalytic Switches for DNA Repair Enzyme OGG1” (Journal of Medicinal Chemistry, 2025)
